Laboratory results published in the supplement of paper PMC10307832.

Legend:
Assay in all cases: relative viability (nuclei count vs DMSO), 5 days (fraction); higher = more cells survive
[1] = compound: C1CNCCC1C2=CC(=NN2)C3=CC=NC=C3 + CS(=O)(=O)CCNCc1ccc(-c2ccc3ncnc(Nc4ccc(OCc5cccc(F)c5)c(Cl)c4)c3c2)o1 [Lapatinib] (partner 2 µM)
In short: (§1)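 Values are medians from duplicate plates. Each reflects relative viability, defined as the nuclei count of treated wells over that of vehicle wells. Lung cancer cell lines in 1536-well plates were pin-tool dosed one day after seeding with one drug alone or with a fixed anchor-drug dose plus five library-drug doses (not always all listed) in √10 steps, then fixed, stained and imaged at 4× after 5 days.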

[2] = compound: C1CNCCC1C2=CC(=NN2)C3=CC=NC=C3 + CC1(C)CCC(c2ccc(Cl)cc2)=C(CN2CCN(c3ccc(C(=O)NS(=O)(=O)c4ccc(N[C@H](CCN5CCOCC5)CSc5ccccc5)c(S(=O)(=O)C(F)(F)F)c4)cc3)CC2)C1 [Navitoclax] (partner 0.5 µM)
In short: as §1

[3] = compound: O[C@H]1CC[C@H](Nc2ncc3nc(Nc4c(F)cc(F)cc4F)n([C@H]4CCOC4)c3n2)CC1 [Tanzisertib] + Cc1nc(Nc2ncc(C(=O)Nc3c(C)cccc3Cl)s2)cc(N2CCN(CCO)CC2)n1 [Dasatinib] (partner 0.075 µM)
In short: as §1

[4] = compound: C[C@@H](N)c1ccc(C(=O)Nc2ccnc3[nH]ccc23)cc1 + O=C(CCCCCCC(=O)Nc1ccccc1)NO [Vorinostat] (partner 1 µM)
In short: as §1

Cell Line	relative viability ([1]; first compound 0.08 µM)	relative viability ([1]; first compound 0.8 µM)	relative viability ([1]; first compound 2.53 µM)	relative viability ([1]; first compound 8 µM)	relative viability ([2]; first compound 0.08 µM)	relative viability ([2]; first compound 0.8 µM)	relative viability ([2]; first compound 2.53 µM)	relative viability ([2]; first compound 8 µM)	relative viability ([3]; first compound 0.08 µM)	relative viability ([3]; first compound 0.253 µM)	relative viability ([3]; first compound 0.8 µM)	relative viability ([3]; first compound 2.53 µM)	relative viability ([3]; first compound 8 µM)	relative viability ([4]; first compound 0.1265 µM)	relative viability ([4]; first compound 0.4 µM)	relative viability ([4]; first compound 1.265 µM)	relative viability ([4]; first compound 4 µM)	relative viability ([4]; first compound 0.04 µM)
HCC-827	0.207	0.174	0.22	0.166	0.972	0.995	0.991	0.876	0.457	0.26	0.35	0.201	0.105	0.813	1.04	0.972	0.701	
HOP-62	1.09	1.17	1.1	1.12	1.06	1.21	1.13	1.03	0.733	0.654	0.659	0.644	0.569	0.541	0.602	0.179	0.555	0.715
IA-LM	0.809	1.13	0.926	0.898	0.919	0.749	0.687	0.611						0.835	1.33	1.37	1.23	1.23
LC-2-ad	1.04	1.05	1	0.914	0.721	0.5	0.503	0.35	0.789	0.642	0.686	0.684	0.403	0.736	0.713	0.476	0.369	0.497
LCLC-97TM1	1.05	1.39	1.59	1.04	0.432	0.385	0.396	0.68	0.953	0.878	0.831	0.786	0.901	0.374	0.69	0.0878	0.779	0.835
LCLC-103H									0.496	0.466	0.427	0.402	0.468	0.634	0.787	0.466	0.608	0.714
LK-2	0.768	0.791	1.06	0.83	0.674	1.25	0.843	0.87	0.281	0.287	0.318	0.28	0.207	0.275	0.222	0.17	0.302	0.198
LOU-NH91	0.766	0.739	0.826	0.854	0.653	0.762	0.866	0.703	0.597	0.585	0.564	0.515	0.391	0.791	0.885	0.625	0.725	0.754
LU99A	0.974	1.18	1.28	1.1	0.662	0.872	0.776	0.732	0.585	0.629	0.556	0.557	0.496	0.529	0.503	0.418	0.366	
LXF-289	0.934	0.937	0.864	0.91	0.957	1.02	0.977	0.934	0.233	0.202	0.222	0.212	0.215	0.794	0.816	0.876	0.836	0.742
